From patent US7012080B2, “Imidazopyridine compounds as 5-HT4 receptor agonists” (Pfizer Inc., priority 2002, dated 2006)

What was measured:
5-HT4 receptor = target: T1, 5-HT4 receptor (UniProt Q13639); experiment: 5-HT4 receptor binding ([3H]-GR113808 displacement)
T1 construct: Human 5-HT4(d) transfected HEK293 cells were prepared and grown in-house
Protocol: The 5-HT4 receptor binding affinities of the compounds of this invention are determined by the following procedures. […]
Human 5-HT4(d) transfected HEK293 cells were prepared and grown in-house. The collected cells were suspended in 50 mM HEPES (pH 7.4 at 4° C.) supplemented with protease inhibitor cocktail (Boehringer, 1:1000 dilution) and homogenized using a hand held Polytron PT 1200 disruptor set at full power for 30 sec on ice. The homogenates were centrifuged at 40,000×g at 4° C. for 30 min. The pellets were then resuspended in 50 mM HEPES (pH 7.4 at 4° C.) and centrifuged once more in the same manner. The final pellets were resuspended in an appropriate volume of 50 mM HEPES (pH 7.4 at 25° C.), homogenized, aliquoted and stored at −80° C. until use. An aliquot of membrane fractions was used for protein concentration determination using BCA protein assay kit (PIERCE) and ARVOsx plate reader (Wallac).
For the binding experiments, 25 μl of test compounds were incubated with 25 μl of [^3H]-GR113808 (Amersham, final 0.2 nM) and 150 μl of membrane homogenate and WGA-SPA beads (Amersham) suspension solutions (10 μg protein and 1 mg SPA beads/well) for 60 minutes at room temperature. Nonspecific binding was determined by 1 μM GR113808 (Tocris) at the final concentration. Incubation was terminated by centrifugation at 1000 rpm. Receptor-bound radioactivity was quantified by counting with MicroBeta plate counter (Wallac).

HERG potassium channel = target: T2, HERG potassium channel (Homo sapiens, UniProt Q12809); experiment: Human dofetilide binding ([3H]-dofetilide, HERG transfected HEK293S cell membranes); conditions: for TI (Defetilide/5HT4): TI = Dofetilide Binding Ki [μM] / 5HT4 Binding Ki [nM] × 1000; for Ki: [3H]-dofetilide 5 nM, human HERG transfected HEK293S membranes
T2 construct: expressed in transfected cells; host or cells: HEK293S
T2 sequence (Q12809 whole entry): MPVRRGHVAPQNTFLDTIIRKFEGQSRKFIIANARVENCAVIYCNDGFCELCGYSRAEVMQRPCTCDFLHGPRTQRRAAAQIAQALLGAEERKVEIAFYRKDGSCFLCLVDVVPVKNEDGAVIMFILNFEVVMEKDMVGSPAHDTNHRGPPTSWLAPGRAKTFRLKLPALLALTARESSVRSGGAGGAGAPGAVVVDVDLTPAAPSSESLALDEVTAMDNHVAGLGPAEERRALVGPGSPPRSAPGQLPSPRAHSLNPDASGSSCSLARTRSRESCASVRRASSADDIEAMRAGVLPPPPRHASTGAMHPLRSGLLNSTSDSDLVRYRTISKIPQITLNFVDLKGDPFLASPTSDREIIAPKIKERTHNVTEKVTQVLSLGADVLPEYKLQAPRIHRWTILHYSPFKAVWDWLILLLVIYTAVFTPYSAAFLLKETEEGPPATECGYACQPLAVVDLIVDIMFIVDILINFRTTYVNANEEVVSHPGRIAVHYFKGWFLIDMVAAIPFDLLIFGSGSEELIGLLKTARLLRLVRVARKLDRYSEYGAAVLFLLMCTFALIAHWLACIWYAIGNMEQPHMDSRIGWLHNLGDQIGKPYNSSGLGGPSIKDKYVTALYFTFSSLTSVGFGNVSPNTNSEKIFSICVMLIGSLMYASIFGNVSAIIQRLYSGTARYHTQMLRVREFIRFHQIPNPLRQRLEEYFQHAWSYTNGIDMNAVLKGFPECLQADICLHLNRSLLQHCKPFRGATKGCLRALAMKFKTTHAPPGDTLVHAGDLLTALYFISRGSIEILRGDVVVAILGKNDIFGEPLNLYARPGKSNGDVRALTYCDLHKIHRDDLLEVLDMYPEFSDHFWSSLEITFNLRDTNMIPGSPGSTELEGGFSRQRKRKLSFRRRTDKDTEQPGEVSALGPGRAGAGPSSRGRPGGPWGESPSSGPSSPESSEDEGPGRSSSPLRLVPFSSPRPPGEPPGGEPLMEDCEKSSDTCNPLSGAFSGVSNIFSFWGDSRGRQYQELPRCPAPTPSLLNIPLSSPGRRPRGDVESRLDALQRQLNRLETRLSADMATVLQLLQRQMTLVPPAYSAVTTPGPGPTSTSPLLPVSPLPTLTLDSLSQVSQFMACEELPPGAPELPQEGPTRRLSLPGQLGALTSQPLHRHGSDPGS
Protocol: Inhibitory activity at HERG channel was estimated from affinity for HERG type potassium channel was investigated by checking [^3H]dofetilide binding, which can predict inhibitory activity at HERG channel (Eur. J. Pharmacol., 430, pp 147–148, 2001). Selected compounds with low [^3H]dofetilide binding activity were evaluated in IHERG assay to check activity at HERG channel. Introducing a branched chain group to nitrogen atom in piperidine ring contributed to potent 5-HT4 receptor agonist activities with reduced inhibitory activity at HERG channel. The compounds of the present invention may show less toxicity, good absorption, distribution and less drug-drug interaction, and have metabolic stability.
Human HERG transfected HEK293S cells were prepared and grown in-house. The collected cells were suspended in 50 mM Tris-HCl (pH 7.4 at 4° C.) and homogenized using a hand held Polytron PT 1200 disruptor set at full power for 20 sec on ice. The homogenates were centrifuged at 48,000×g at 4° C. for 20 min. The pellets were then resuspended, homogenized, and centrifuged once more in the same manner. The final pellets were resuspended in an appropriate volume of 50 mM Tris-HCl, 10 mM KCl, 1 mM MgCl2 (pH 7.4 at 4° C.), homogenized, aliquoted and stored at −80° C. until use. An aliquot of membrane fractions was used for protein concentration determination using BCA protein assay kit (PIERCE) and ARVOsx plate reader (Wallac).
Binding assays were conducted in a total volume of 200 μl in 96-well plates. Twenty μl of test compounds were incubated with 20 μl of [^3H]-dofetilide (Amersham, final 5 nM) and 160 μl of membrane homogenate (25 μg protein) for 60 minutes at room temperature. Nonspecific binding was determined by 10 μM dofetilide at the final concentration. Incubation was terminated by rapid vacuum filtration over 0.5% presoaked GF/B Betaplate filter using Skatron cell harvester with 50 mM Tris-HCl, 10 mM KCl, 1 mM MgCl2, pH 7.4 at 4° C. The filters were dried, put into sample bags and filled with Betaplate Scint. Radioactivity bound to filter was counted with Wallac Betaplate counter.

Row | SMILES | Ki (5-HT4 receptor) [nM] | melting point [°C] | TI (Defetilide/5HT4) (HERG potassium channel) | Ki (HERG potassium channel) [nM]
1 | Cc1cn2c(N)c(Cl)cc(C(=O)NCC3CCN(CC(C)C)CC3)c2n1 [Example 1, 5-Amino-6-chloro-N-[(1-isobutylpiperidin-4-yl)methyl]-2-methylimidazo[1,2-a]pyridine-8-carboxamide] | 0.82 | 216 to 219 | 7,000 | 5750
2 | CCc1cn2c(N)c(Cl)cc(C(=O)NCC3CCN(CC(C)(C)OC)CC3)c2n1 [Example 4, 5-Amino-6-chloro-2-ethyl-N-{[1-(2-methoxy-2-methylpropyl)piperidin-4-yl]methyl}imidazo[1,2-a]pyridine-8-carboxamide] | 1.2 | 211 | – | 22300
3 | Cc1cn2c(N)ccc(C(=O)NCC3CCN(CC(C)C)CC3)c2n1 [Example 2, 5-Amino-N-[(1-isobutylpiperidi-4-yl)methyl]-2-methylimidazo[1,2-a]pyridine-8-carboxamide] | 3.1 | – | 7,800 | 24100
4 | CCc1cn2c(N)c(Cl)cc(C(=O)NCC3CCN(CCC(C)(C)C)CC3)c2n1 [Example 3, 5-Amino-6-chloro-N-{[1-(3,3-dimethylbutyl)piperidin-4-yl]methyl}-2-ethylimidazo[1,2-a]pyridine-8-carboxamide] | 0.77 | 234 | 5,000 | 3870
5 | COCCCN1CCC(CNC(=O)c2cc(Cl)c(N)n3cc(C)nc23)CC1 [Compound B, reference compound] | 4.6 | – | 1,300 | 6000
6 | CCCCN1CCC(CNC(=O)c2cc(Cl)c(N)n3cc(C)nc23)CC1 [Compound A, reference compound] | 1.2 | – | 1,900 | 2300

Second part, led by results:

Row | Ki (5-HT4 receptor) [nM] | melting point [°C] | SMILES | TI (Defetilide/5HT4) (HERG potassium channel) | Ki (HERG potassium channel) [nM]
7 | – | 199 | COC(C)(C)CCN1CCC(CNC(=O)c2cc(Cl)c(N)n3cc(C)nc23)CC1 [Example 8, 5-Amino-6-chloro-N-{[1-(3-methoxy-3-methylbutyl)piperidin-4-yl]methyl}2-methylimidazo[1,2-a]pyridine-8-carboxamide] | – | –
8 | – | 199 | COCC(C)(C)CN1CCC(CNC(=O)c2cc(Cl)c(N)n3cc(C)nc23)CC1 [Example 9, 5-amino-6-chloro-N-{[1-(3-methoxy-2,2-dimethylpropyl)piperidin-4-yl]methyl}2-methylimidazo[1,2-a]pyridine-8-carboxamide] | – | –
9 | 2 | 211 | COC(C)(C)CN1CCC(CNC(=O)c2cc(Cl)c(N)n3cc(C)nc23)CC1 [Example 5, 5-Amino-6-chloro-2-methyl-N-{[1-(2-methoxy-2-methylpropyl)piperidin-4-yl]methyl}imidazo[1,2-a]pyridine-8-carboxamide] | – | > 24000
